In the supplement of paper PMC10307832:

Legend:
Experiment in all cases: relative viability (nuclei count vs DMSO), 5 days (fraction); higher = more cells survive
[1] = compound: N#CC1(c2ccc(NC(=O)c3cccnc3NCc3ccncc3)cc2)CCCC1 [Apatinib] + COc1cccc2cc(-c3nc([C@H]4CC[C@H](C(=O)O)CC4)n4ncnc(N)c34)[nH]c12 [OSI-027] (partner 0.5 µM)
How it was run: (§1)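 Lung cancer cell lines in 1536-well plates were dosed by pin tool the day after seeding, either with one drug alone or with a fixed anchor-drug dose plus five library-drug doses (not always all listed) in √10 steps. After 5 days, cells were fixed and their nuclei stained in one step (final 0.05% Triton X-100, 1% formaldehyde, 1 ug/ml Hoechst), then counted on 4× images. Relative viability is the nuclei count in treated wells divided by that in vehicle wells. Values are medians of duplicate plates.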

[2] = compound: N#CC1(c2ccc(NC(=O)c3cccnc3NCc3ccncc3)cc2)CCCC1 [Apatinib] + Cc1nc(NC(=O)N2CCC[C@H]2C(N)=O)sc1-c1ccnc(C(C)(C)C(F)(F)F)c1 [Alpelisib] (partner 2 µM)
How it was run: as §1

[3] = compound: N#CC1(c2ccc(NC(=O)c3cccnc3NCc3ccncc3)cc2)CCCC1 [Apatinib] + C[C@]1(O)C[C@@H](c2nc(-c3ccc4ccc(-c5ccccc5)nc4c3)c3c(N)nccn32)C1 [Linsitinib] (partner 1 µM)
How it was run: as §1

[4] = compound: N#CC1(c2ccc(NC(=O)c3cccnc3NCc3ccncc3)cc2)CCCC1 [Apatinib] + O=C(CCCCCCC(=O)Nc1ccccc1)NO [Vorinostat] (partner 1 µM)
How it was run: as §1

Cell Line: NCI-H1623
- relative viability ([1]; first compound 0.08 µM): 0.443
- relative viability ([1]; first compound 0.253 µM): 0.423
- relative viability ([1]; first compound 0.8 µM): 0.404
- relative viability ([1]; first compound 2.53 µM): 0.351
- relative viability ([1]; first compound 8 µM): 0.385

Cell Line: HCC-15
- relative viability ([2]; first compound 0.08 µM): 0.911
- relative viability ([2]; first compound 0.253 µM): 0.904
- relative viability ([2]; first compound 0.8 µM): 0.839
- relative viability ([2]; first compound 2.53 µM): 0.891
- relative viability ([2]; first compound 8 µM): 0.705
- relative viability ([3]; first compound 0.08 µM): 1.02
- relative viability ([3]; first compound 0.253 µM): 0.937
- relative viability ([3]; first compound 0.8 µM): 0.813
- relative viability ([3]; first compound 2.53 µM): 0.878
- relative viability ([3]; first compound 8 µM): 0.878
- relative viability ([4]; first compound 0.08 µM): 0.9
- relative viability ([4]; first compound 0.253 µM): 0.876
- relative viability ([4]; first compound 0.8 µM): 0.871
- relative viability ([4]; first compound 2.53 µM): 0.887
- relative viability ([4]; first compound 8 µM): 0.706
- relative viability ([1]; first compound 0.08 µM): 0.719
- relative viability ([1]; first compound 0.253 µM): 0.691
- relative viability ([1]; first compound 0.8 µM): 0.658
- relative viability ([1]; first compound 2.53 µM): 0.628
- relative viability ([1]; first compound 8 µM): 0.509

Cell Line: NCI-H441
- relative viability ([2]; first compound 0.08 µM): 0.872
- relative viability ([2]; first compound 0.253 µM): 0.82
- relative viability ([2]; first compound 0.8 µM): 0.752
- relative viability ([2]; first compound 2.53 µM): 0.726
- relative viability ([2]; first compound 8 µM): 0.421
- relative viability ([3]; first compound 0.08 µM): 0.596
- relative viability ([3]; first compound 0.253 µM): 0.61
- relative viability ([3]; first compound 0.8 µM): 0.628
- relative viability ([3]; first compound 2.53 µM): 0.422
- relative viability ([3]; first compound 8 µM): 0.303
- relative viability ([4]; first compound 0.08 µM): 0.891
- relative viability ([4]; first compound 0.253 µM): 0.673
- relative viability ([4]; first compound 0.8 µM): 0.827
- relative viability ([4]; first compound 2.53 µM): 0.809
- relative viability ([4]; first compound 8 µM): 0.574
- relative viability ([1]; first compound 0.08 µM): 0.609
- relative viability ([1]; first compound 0.253 µM): 0.625
- relative viability ([1]; first compound 0.8 µM): 0.541
- relative viability ([1]; first compound 2.53 µM): 0.436
- relative viability ([1]; first compound 8 µM): 0.339

Cell Line: NCI-H1993
- relative viability ([2]; first compound 0.08 µM): 0.779
- relative viability ([2]; first compound 0.253 µM): 0.675
- relative viability ([2]; first compound 0.8 µM): 0.703
- relative viability ([2]; first compound 2.53 µM): 0.656
- relative viability ([2]; first compound 8 µM): 0.654
- relative viability ([3]; first compound 0.08 µM): 0.751
- relative viability ([3]; first compound 0.253 µM): 0.648
- relative viability ([3]; first compound 0.8 µM): 0.742
- relative viability ([3]; first compound 2.53 µM): 0.715
- relative viability ([3]; first compound 8 µM): 0.775
- relative viability ([4]; first compound 0.08 µM): 0.804
- relative viability ([4]; first compound 0.253 µM): 0.726
- relative viability ([4]; first compound 0.8 µM): 0.948
- relative viability ([4]; first compound 2.53 µM): 0.788
- relative viability ([4]; first compound 8 µM): 0.727
- relative viability ([1]; first compound 0.08 µM): 0.627
- relative viability ([1]; first compound 0.253 µM): 0.596
- relative viability ([1]; first compound 0.8 µM): 0.549
- relative viability ([1]; first compound 2.53 µM): 0.49
- relative viability ([1]; first compound 8 µM): 0.494

Cell Line: NCI-H1915
- relative viability ([2]; first compound 0.08 µM): 1.08
- relative viability ([2]; first compound 0.253 µM): 1.09
- relative viability ([2]; first compound 0.8 µM): 1.04
- relative viability ([2]; first compound 2.53 µM): 0.916
- relative viability ([2]; first compound 8 µM): 0.81
- relative viability ([3]; first compound 0.08 µM): 1.15
- relative viability ([3]; first compound 0.253 µM): 1.02
- relative viability ([3]; first compound 0.8 µM): 1.08
- relative viability ([3]; first compound 2.53 µM): 1.06
- relative viability ([3]; first compound 8 µM): 0.921
- relative viability ([4]; first compound 0.08 µM): 0.578
- relative viability ([4]; first compound 0.253 µM): 0.519
- relative viability ([4]; first compound 0.8 µM): 0.495
- relative viability ([4]; first compound 2.53 µM): 0.37
- relative viability ([4]; first compound 8 µM): 0.314
- relative viability ([1]; first compound 0.08 µM): 0.67
- relative viability ([1]; first compound 0.253 µM): 0.614
- relative viability ([1]; first compound 0.8 µM): 0.672
- relative viability ([1]; first compound 2.53 µM): 0.537
- relative viability ([1]; first compound 8 µM): 0.503

Cell Line: ABC-1
- relative viability ([2]; first compound 0.253 µM): 1.2
- relative viability ([2]; first compound 0.8 µM): 1.1
- relative viability ([2]; first compound 2.53 µM): 1.01
- relative viability ([2]; first compound 8 µM): 1.1
- relative viability ([3]; first compound 0.253 µM): 0.861
- relative viability ([3]; first compound 0.8 µM): 0.869
- relative viability ([3]; first compound 2.53 µM): 0.839
- relative viability ([3]; first compound 8 µM): 0.882
- relative viability ([4]; first compound 0.253 µM): 1.2
- relative viability ([4]; first compound 0.8 µM): 1.07
- relative viability ([4]; first compound 2.53 µM): 1.04
- relative viability ([4]; first compound 8 µM): 1.22
- relative viability ([1]; first compound 0.253 µM): 0.543
- relative viability ([1]; first compound 0.8 µM): 0.453
- relative viability ([1]; first compound 2.53 µM): 0.499
- relative viability ([1]; first compound 8 µM): 0.336

Cell Line: NCI-H2087
- relative viability ([2]; first compound 0.08 µM): 1.19
- relative viability ([2]; first compound 0.253 µM): 1.07
- relative viability ([2]; first compound 0.8 µM): 1.03
- relative viability ([2]; first compound 2.53 µM): 0.904
- relative viability ([2]; first compound 8 µM): 0.666
- relative viability ([3]; first compound 0.08 µM): 1.07
- relative viability ([3]; first compound 0.253 µM): 0.925
- relative viability ([3]; first compound 0.8 µM): 0.907
- relative viability ([3]; first compound 2.53 µM): 0.924
- relative viability ([3]; first compound 8 µM): 0.716
- relative viability ([4]; first compound 0.08 µM): 0.768
- relative viability ([4]; first compound 0.253 µM): 0.591
- relative viability ([4]; first compound 0.8 µM): 0.747
- relative viability ([4]; first compound 2.53 µM): 0.579
- relative viability ([4]; first compound 8 µM): 0.688
- relative viability ([1]; first compound 0.08 µM): 0.607
- relative viability ([1]; first compound 0.253 µM): 0.458
- relative viability ([1]; first compound 0.8 µM): 0.468
- relative viability ([1]; first compound 2.53 µM): 0.492
- relative viability ([1]; first compound 8 µM): 0.426

Cell Line: NCI-H1755
- relative viability ([2]; first compound 0.08 µM): 0.933
- relative viability ([2]; first compound 0.253 µM): 0.946
- relative viability ([2]; first compound 0.8 µM): 0.909
- relative viability ([2]; first compound 2.53 µM): 0.899
- relative viability ([2]; first compound 8 µM): 0.845
- relative viability ([3]; first compound 0.08 µM): 0.976
- relative viability ([3]; first compound 0.253 µM): 0.97
- relative viability ([3]; first compound 0.8 µM): 0.964
- relative viability ([3]; first compound 2.53 µM): 0.977
- relative viability ([3]; first compound 8 µM): 0.709
- relative viability ([4]; first compound 0.08 µM): 0.846
- relative viability ([4]; first compound 0.253 µM): 0.7
- relative viability ([4]; first compound 0.8 µM): 0.783
- relative viability ([4]; first compound 2.53 µM): 0.705
- relative viability ([4]; first compound 8 µM): 0.586
- relative viability ([1]; first compound 0.08 µM): 0.838
- relative viability ([1]; first compound 0.253 µM): 0.729
- relative viability ([1]; first compound 0.8 µM): 0.699
- relative viability ([1]; first compound 2.53 µM): 0.672
- relative viability ([1]; first compound 8 µM): 0.523

Cell Line: HCC-366
- relative viability ([2]; first compound 0.08 µM): 0.417
- relative viability ([2]; first compound 0.253 µM): 0.46
- relative viability ([2]; first compound 0.8 µM): 0.4
- relative viability ([2]; first compound 2.53 µM): 0.308
- relative viability ([2]; first compound 8 µM): 0.265
- relative viability ([3]; first compound 0.08 µM): 0.899
- relative viability ([3]; first compound 0.253 µM): 0.732
- relative viability ([3]; first compound 0.8 µM): 0.571
- relative viability ([3]; first compound 2.53 µM): 0.678
- relative viability ([3]; first compound 8 µM): 0.616
- relative viability ([4]; first compound 0.08 µM): 0.437
- relative viability ([4]; first compound 0.253 µM): 0.386
- relative viability ([4]; first compound 0.8 µM): 0.329
- relative viability ([4]; first compound 2.53 µM): 0.205
- relative viability ([4]; first compound 8 µM): 0.193
- relative viability ([1]; first compound 0.08 µM): 1.06
- relative viability ([1]; first compound 0.253 µM): 0.88
- relative viability ([1]; first compound 0.8 µM): 0.815
- relative viability ([1]; first compound 2.53 µM): 0.744
- relative viability ([1]; first compound 8 µM): 0.494
